Reference: US12599606B2, “Therapies with 3rd generation EGFR tyrosine kinase inhibitors” (Janssen Biotech, Inc., priority 2019, dated 2026)

How the values were obtained:
[1] = system: EGFR mutation positive (EGFRm+) advanced NSCLC; test: Clinical Trial No. NCT03046992, phase I/II lazertinib monotherapy; assay type: in vivo, human; conditions: for ORR, (%): T790M+ patients
Excerpt: Clinical Trial No. NCT03046992 was primarily designed to evaluate the safety, tolerability, and efficacy of YH25448 in patients with EGFR mutation positive (EGFRm+) advanced NSCLC with or without asymptomatic brain metastasis who progressed following prior therapy with an EGFR TKIs agent.
Patients with advanced and metastatic NSCLC who had progressed after treatment with EGFR-TKIs with/without asymptomatic brain metastases (BM) were enrolled in an open-label, multicenter, phase I/II study with dose-escalation and expansion cohorts. Lazertinib was administered once daily at doses between 20 to 320 mg in a 21-day cycle. Patients were assessed for safety, tolerability, pharmacokinetics and efficacy. T790M status was confirmed in the dose-expansion cohorts.

[2] = system: EGFR Dell9/T790M mutant lung adenocarcinoma; conditions: one patient, 40 mg daily, cited from earlier work
[3] = Body weight and clinical signs of nude mice bearing H1975 xenografts; conditions: for body weight loss compared to the control group: H1975-xenograft-bearing nude mice, Day 29, 10 mg/kg; for animals euthanized due to negative clinical signs: H1975 model, n=10/group, unclear whether due to tumor burden or treatment
Protocol: The mice were housed on irradiated Enrich-o'cobs™ Laboratory Animal Bedding in static microisolators on a 12-hour light cycle at 20-22° C. (68-72° F.) and at 40-60% humidity.
(§1) Female athymic nude mice were used in the studies (n=10/group). Treatment began when SC tumors reached approximately 100 to 300 mm^3 in size. and dosing was initiated according to the treatment plan summarized in Table 2. […] The control group was dosed with vehicle orally daily for 21 days, and the isotype control antibody was dosed twice a week IP for 3 weeks. Mice were monitored for body weight and tumor volume up to Day 95, and were euthanized when individual tumor volume reached 2,000 mm^3 or at study conclusion.
(§2) Relative body weight of individual mice was calculated using the formula: (W/W0)×100, where ‘W’ represents body weight on a particular day, and ‘W0’ represents body weight at initiation of treatment. Body weight was graphically represented as mean % of initial body weight±SEM.
Tumor volume and body weight data were graphically represented using Prism software (GraphPad, version 7). Statistical significance was evaluated for all pairwise comparisons on the last day of the study when at least eight mice remained in each group. Differences between groups were considered significant when p≤0.05. Statistical significance of tumor volume and body weight was calculated using the Linear Mixed-Effects analysis in R software version 3.4.2 (using Janssen's internally developed Shiny application version 3.3), with treatment and time as fixed effects and animal as random effect. Logarithmic transformation (base 10) was performed if individual longitudinal response trajectories were not linear. The information derived from this model was used to make pairwise treatment comparisons to the control group or between all the treatment groups.

H1975-HGF xenografts = test: H1975-HGF human lung carcinoma xenograft model, antitumor activity
Protocol: as §1
Tumor volume data were graphically represented as the mean tumor volume±SEM. Tumor volume was calculated using the formula: tumor volume (mm^3)=(D×d2)/2; where ‘D’ represents the larger diameter, and ‘d’ the smaller diameter of the tumor as determined by caliper measurements.
The % TGI was defined as the difference between mean tumor burden of the treated and control group, calculated as % ΔTGI=([(TVc−TVc0)−(TVt−TVt0)]/(TVc−TVc0))×100 where ‘TVc’ is the mean tumor burden of a given control group, ‘TVc0’ is the mean initial tumor burden of a given control group, ‘TVt’ is the mean tumor burden of the treated group, and ‘TVt0’ is the mean initial tumor burden of the treated group. […]
Survival data was graphed and analyzed using GraphPad Prism 7.04 for Windowswith day 1 as the treatment start date. […]

[4] = system: H1975 human lung xenografts; test: H1975 human lung carcinoma xenograft model, antitumor activity
Protocol: The animals were fed ad libitum water (reverse osmosis, 1 ppm Cl) and NIH 31 Modified and Irradiated Lab Diet® consisting of 18.0% crude protein, 5.0% crude fat, and 5.0% crude fiber. The mice were housed on irradiated Enrich-o'cobs™ Laboratory Animal Bedding in static microisolators on a 12-hour light cycle at 20-22° C. (68-72° F.) and at 40-60% humidity. All studies complied with the recommendations of the Guide for Care and Use of Laboratory Animals with respect to restraint, husbandry, surgical procedures, feed and fluid regulation, and veterinary care. […]
On the day of implant, the NCI-H1975 cells were harvested during log phase growth and resuspended in phosphate buffered saline (PBS) at a concentration of 5×10^7 cells/mL. Xenografts were initiated by subcutaneously implanting 5×10^6 NCI-H1975 cells per animal (0.1 mL suspension) into the right flank of each test animal and tumors were monitored as their volumes approached the target range of 150-200 mm^3. Fifteen days later, animals were sorted into bins by calculated tumor volumes based on vernier caliper measurements of tumor width and length to the nearest mm. […] Tumor size, in mm3, was calculated using the following formula: Tumor Volume=(w^2×l)/2 where w=width and l=length, in mm, of the tumor. […]

[5] = Body weight and clinical signs of nude mice bearing H1975-HGF xenografts; assay type: in vivo; conditions: H1975-HGF model, n=10/group; unclear whether due to tumor burden or treatment
Protocol: as §1, §2
Tumor volume and body weight data were graphically represented using Prism software (GraphPad, version 7). Statistical significance was evaluated for all pairwise comparisons on the last day of the study when at least eight mice remained in each group. Differences between groups were considered significant when p≤0.05. Statistical significance of tumor volume and body weight was calculated using the Linear Mixed-Effects analysis in R software version 3.4.2 (using Janssen's internally developed Shiny application version 3.3), with treatment and time as fixed effects and animal as random effect. […]

advanced NSCLC = test: Study 61186372EDI1001, Phase 1 first-in-human dose escalation of JNJ-61186372 as monotherapy and in combination with lazertinib; assay type: in vivo
Excerpt: This study is a first-in-human, open-label, multicenter, 2-part, Phase 1 dose escalation study to evaluate the safety and PK, establish a recommended Phase 2 dose (RP2D) and recommended Phase 2 combination dose (RP2CD) regimen, and to assess the preliminary efficacy of JNJ-61186372 as a monotherapy and in combination with lazertinib in subjects who are≥18 years of age with advanced NSCLC.
Part 1 JNJ-61186372 Monotherapy and Combination Dose Escalations: A traditional 3+3 design will be utilized to determine the MTD (or the maximum administered dose [MAD] if no MTD is defined) and the RP2D regimen(s) for JNJ-61186372 monotherapy, and the RP2CD of the JNJ-61186372 and lazertinib combination, in subjects with advanced NSCLC. The total number of subjects enrolled in each dose escalation will depend on the dose level at which the MTD or MAD is reached, and whether dose cohort expansions are indicated. […]
Anti-tumor activity will be evaluated by clinical responses as per the Response Evaluation Criteria in Solid Tumors (RECIST v1.1) (Eisenhauer et al.., Eur J Cancer 2009;45(2):228-247) The investigator will evaluate sites of disease by radiological imaging, physical examination, and other procedures, as necessary, and all results will be recorded in the case report form (CRF). […]

[6] = monotherapy, EGFR-mutated NSCLC
[7] = Day 28, as compared to controls, 10 mg/kg

## C=CC(=O)Nc1cc(Nc2nccc(-n3cc(CN(C)C)c(-c4ccccc4)n3)n2)c(OC)cc1N1CCOCC1 [Lazertinib, N-(5-(4-(4-((dimethylamino)methyl)-3-phenyl-1H-pyrazol-1-yl)pyrimidin-2-ylamino)-4-methoxy-2-morpholinophenyl)acrylamide]
[1]; 20 to 320 mg once daily
  systemic exposure: increased dose-dependently
[1]; 93 T790M+ patients
  ORR: 69%
[1]; 115 patients
  TEAE constipation: 12%
  TEAE decreased appetite: 17%
  TEAE of grade ≥3 hyponatraemia: 2%
  TEAE of grade ≥3 nausea: 2%
  TEAE of grade ≥3 pneumonia: 2%
  TEAE pruritus: 19%
  TEAE rash: 14%
[1]; EGFR T790M+ NSCLC patients, multiple dose levels
  tolerability: well tolerated
[1]; 20 mg QD, 2 evaluable
  ORR, (%): 100%
[1]; 40 mg QD, 25 evaluable
  ORR, (%): 68%
[1]; 80 mg QD, 18 evaluable
  ORR, (%): 61%
[1]; 120 mg QD, 22 evaluable
  ORR, (%): 77%
[1]; 160 mg QD, 18 evaluable
  ORR, (%): 61%
[1]; 240 mg QD, 8 evaluable
  ORR, (%): 75%
[1]; dose-escalation cohort, 38 patients, 20 to 320 mg
  dose-limiting toxicities: No dose-limiting toxicities were observed
[1]; evaluable patients (n=110) at data cut-off, 20 to 320 mg once daily
  objective response rate (ORR): 65%
[1]; monotherapy FIH dose escalation, through 320 mg
  DLTs: no DLTs were observed
[1]; [6]
  dose from which clinical activity was demonstrated in the targeted population: 240 mg
[1]; patients with BM (n=12)
  intracranial ORR: 50%
[2]; tumor assessment after 6 weeks
  extracranial tumor reduction: 12.7%
  intracranial tumor reduction: 49.3%
  overall tumor reduction: 25.9%
[2]
  adverse events: without significant adverse events
[3]
  body weight loss compared to the control group: some transient body weight loss
  animals euthanized due to negative clinical signs: One
H1975-HGF xenografts; n=10/group, mice with CR
  CR (complete tumor regression): 2 of 10
[4]; n=10/group, mice with CR
  CR (complete tumor regression): 1 of 10

## C=CC(=O)Nc1cc(Nc2nccc(-c3cn(C)c4ccccc34)n2)c(OC)cc1N(C)CCN(C)C [Osimertinib, osimertinib, reference compound]
[5]
  mice found dead or euthanized due to negative clinical signs: One
[3]
  body weight loss compared to the control group: some transient body weight loss

## JNJ-372
[5]
  mice found dead or euthanized due to negative clinical signs: One
Advanced NSCLC; monotherapy FIH dose escalation, through 1400 mg
  DLTs: no DLTs were observed
Advanced NSCLC; [6]
  dose from which clinical activity was demonstrated in the targeted population: 700 mg
[3]
  animals euthanized due to negative clinical signs: One
H1975-HGF xenografts; [7]
  TGI: 70%
[4]; [7]
  TGI: 86%
